From article PMC7831505, “Monosubstituted Acetophenone Thiosemicarbazones as Potent Inhibitors of Tyrosinase: Synthesis, Inhibitory Studies, and Molecular Docking” (Pharmaceuticals, 2021)
“And” between values parts separate entries of the source, which are not always exact repeats. Equal values may be shown once.

Columns and labels:
mushroom tyrosinase [1] = experiment: Tyrosinase enzymatic assay (diphenolase activity, dose-response IC50); format: biochemical, Agaricus bisporus; details: for IC50: L-DOPA 1 mM as substrate, pH 6.8, 25 °C, n = 3; for Ratio of IC50 of Kojic Acid to IC50 of TSC: mushroom tyrosinase diphenolase activity
Experimental: In order to determine the IC50, dose–response analysis for all investigated compounds was performed. […] The enzyme was isolated from Agaricus bisporus, purchased from a local supplier in Wroclaw, and prepared as described in our previous papers, according to known procedures reported in the literature. The full description of enzyme preparation is included in the Supplementary Materials (Section 2). […] L-DOPA was dissolved in a 0.15 mM phosphoric (V) acid solution to a concentration of 5 mM. […] The isolated tyrosinase solution (0.5 mg/mL, 40,000 U/mg) was diluted 10 times in sodium phosphate buffer (0,1 M, pH 6.8). […] The optimal ionic strength and pH for tyrosinase activity were provided by 0.1 M sodium phosphate buffer (pH 6.8). […] The control sample contained the same reagents as the test samples except for the substrate. […] The concentration of L-3,4-dihydroxyphenylalanine (L-DOPA) was 1 mM in all the cases.

[2] = test system: B16F10 murine melanoma cells; experiment: Measurement of melanin production in α-MSH-stimulated cells; format: cell-based; details: for IC50: B16F10 cells stimulated with α-MSH 100 nM, 48 h with inhibitor, absorbance 405 nm, read-out: Inhibition of Melanin Production IC50
Experimental: In the presence of α-MSH, the cells were treated with the inhibitors after 24 h. […] Kojic acid was used as a positive control, and dimethyl sulfoxide (DMSO) was used as a solvent control. Melanin content was measured spectrophotometrically at 405 nm. […] Cells were maintained in 5% CO2 at 37 °C. […] The cells were seeded into a 96-well plate (5 × 10^3 cells/well) and stimulated with α-MSH (100 nM, Sigma-Aldrich, Taufkirchen, Germany). […] After 48 h of incubation with inhibitors, cells were solubilized in 1 N sodium hydroxide (1 N, 60 °C, 2 h). In order to measure melanin content, absorbance was measured (λ = 405 nm) using a microplate reader.

mushroom tyrosinase [3] = experiment: Kinetic studies of tyrosinase inhibition (Lineweaver-Burk and secondary plots); format: biochemical, Agaricus bisporus; details: for Inhibition Mechanism / Inhibition Type: diphenolase activity of mushroom tyrosinase, L-DOPA; for Inhibition Type: Lineweaver-Burk plot; for Ki: n = 3, secondary plots, read-out: Ki ± Standard Error (inhibition constant for enzyme-inhibitor complex)
Experimental: The kinetics of the interaction between TSCs 1–12 and mushroom tyrosinase were determined. […] The inhibition type was determined through creation of the Lineweaver–Burk plot (double reciprocal plot), which enables easier analysis of the Michaelis–Menten plot. […] Inhibition constants Ki were determined from the secondary plots of km (Michaelis constant) versus the inhibitor concentration for competitive inhibition and by the secondary plots of the slope of the lines from the Lineweaver–Burk plot as a function of the inhibitor concentration for mixed-type inhibition. […] They were all competitive inhibitors, whereas meta- and ortho-substituted compounds were mixed inhibitors. The inhibition mechanism for the investigated compounds was also tested. […] L-DOPA was dissolved in a 0.15 mM phosphoric (V) acid solution to a concentration of 5 mM. […] The isolated tyrosinase solution (0.5 mg/mL, 40,000 U/mg) was diluted 10 times in sodium phosphate buffer (0,1 M, pH 6.8). […] The optimal ionic strength and pH for tyrosinase activity were provided by 0.1 M sodium phosphate buffer (pH 6.8). […] The control sample contained the same reagents as the test samples except for the substrate. […] (b) Secondary plot of km versus inhibitor concentrations for determination of Ki for competitive inhibition. (c) Plot to determine the inhibitory mechanism.

[4] = test system: B16F10 murine melanoma cells; experiment: Cell proliferation assay (MTT); format: cell-based; details: read-out: Inhibition of Cell Proliferation IC50
Experimental: In the presence of α-MSH, the cells were treated with the inhibitors after 24 h. […] Kojic acid was used as a positive control, and dimethyl sulfoxide (DMSO) was used as a solvent control. Melanin content was measured spectrophotometrically at 405 nm. […] Cells were maintained in 5% CO2 at 37 °C. Cell viability was estimated using the MTT colorimetric assay as described in our previous papers and by Bellei et al.. […] Kojic acid and DMSO were used as controls. MTT was added to wells (0.625 mg/mL, Sigma-Aldrich, Taufkirchen, Germany) for the last 4 h. Then, lysing buffer was added to dissolve insoluble formazan. The absorbance was measured (λ = 570 nm) using a Thermo Lab Multiscan RC microplate reader.

Row | SMILES | IC50 (mushroom tyrosinase [1]) [µM] | Ratio of IC50 of Kojic Acid to IC50 of TSC (mushroom tyrosinase [1]) | Ratio of IC50 for the inhibition of B16F10 cell proliferation to IC50 for the inhibition of melanin production ([2]; B16F10 cells) | IC50 [2] [µM] | IC50 ([2]; Mus musculus, B16-F10, 48 h) [µM] | Inhibition Mechanism (mushroom tyrosinase [3]) | Inhibition Type (mushroom tyrosinase [3]) | Inhibition Type (mushroom tyrosinase [3]; listed as Compound 9) | Ki (mushroom tyrosinase [3]) [µM] | IC50 ([4]; Mus musculus, B16-F10, 48 h) [µM] | IC50 ([4]; 48 h) [µM] | Inhibition Type (mushroom tyrosinase [3]; listed as Compound 11) | Inhibition Type (mushroom tyrosinase [3]; listed as Compound 3)
1 | C/C(=N/NC(N)=S)c1ccccc1 [Acetophenone TSC, acetophenone thiosemicarbazones] | 1.5 | 13.2 | – | – | – | – | – | – | – | – | – | – | –
2 | C[S+](C)[O-] [DMSO, dimethyl sulfoxide] | – | – | – | 8020 | – | – | – | – | – | – | 166 | – | –
3 | COc1cccc(/C(C)=N/NC(N)=S)c1 [TSC 2, (E)-3’-Methoxyacetophenone thiosemicarbazone] | 1.9 | 10.5 | – | – | – | reversible | mixed-type | – | 1 ± 0.1 | 22.4 | – | – | –
4 | COc1ccccc1C(C)=NNC(N)=S [TSC 1, 2’-methoxyacetophenone thiosemicarbazone] | 12.2 | 1.6 | – | – | 39.2 | reversible | mixed-type | – | 5 ± 1.4 | 45.2 | – | – | –
5 | O=c1cc(CO)occ1O [Kojic acid, reference compound] | – | – | – | – | 114 | reversible | mixed | – | – | 153 | – | – | –
6 | CC(=NNC(N)=S)c1ccccc1N [TSC 4, 2’-aminoacetophenone thiosemicarbazone] | 11.3 | 1.8 | – | – | 208 | reversible | mixed-type | – | 8 ± 0.9 | – | – | – | –
7 | NC(=S)N/N=C\c1ccccc1 [Benzaldehyde TSC, benzaldehyde thiosemicarbazone, reference compound] | 3.4 | 5.6 | – | – | – | – | – | – | – | – | – | – | –
8 | COc1ccc(/C(C)=N/NC(N)=S)cc1 [TSC 3, (E)-4’-Methoxyacetophenone thiosemicarbazone] | 1.8 | 11.1 | – | – | – | reversible | competitive | – | 0.6 ± 0.01 | 20.3 | – | – | competitively

Now from value to molecule:

Row | IC50 (mushroom tyrosinase [1]) [µM] | Ratio of IC50 of Kojic Acid to IC50 of TSC (mushroom tyrosinase [1]) | Ratio of IC50 for the inhibition of B16F10 cell proliferation to IC50 for the inhibition of melanin production ([2]; B16F10 cells) | IC50 [2] [µM] | IC50 ([2]; Mus musculus, B16-F10, 48 h) [µM] | Inhibition Mechanism (mushroom tyrosinase [3]) | Inhibition Type (mushroom tyrosinase [3]) | Inhibition Type (mushroom tyrosinase [3]; listed as Compound 9) | Ki (mushroom tyrosinase [3]) [µM] | IC50 ([4]; Mus musculus, B16-F10, 48 h) [µM] | IC50 ([4]; 48 h) [µM] | Inhibition Type (mushroom tyrosinase [3]; listed as Compound 11) | Inhibition Type (mushroom tyrosinase [3]; listed as Compound 3) | SMILES
9 | 0.8 | 20 and 24.9 | 4.6 | 25.2 | < 30 | reversible | competitive | competitively | 0.6 ± 0.06 | 115 | – | – | – | C/C(=N\NC(N)=S)c1ccc(O)cc1 [TSC 9, (E)-4’-Hydroxyacetophenone thiosemicarbazone]
10 | 1.2 | 16.5 | – | 21.7 | < 30 | reversible | mixed-type | – | 0.7 ± 0.1 | 37.3 | – | – | – | CC(=NNC(N)=S)c1ccccc1O [TSC 7, 2’-hydroxyacetophenone thiosemicarbazone]
11 | 0.95 | 20 and 20.9 | – | – | 69.5 | reversible | mixed-type | – | 0.6 ± 0.08 | 103 | – | – | – | C/C(=N\NC(N)=S)c1cccc(O)c1 [TSC 8, (E)-3’-Hydroxyacetophenone thiosemicarbazone]
12 | 14.2 | 1.4 | – | – | 44 | reversible | – | – | 0.4 ± 0.02 | 44.8 | – | competitively | – | C/C(=N\NC(N)=S)c1cccc([N+](=O)[O-])c1 [TSC 11, (E)-3’-Nitroacetophenone thiosemicarbazone]
13 | > 150 | 0.1 | – | – | 77.8 | reversible | mixed-type | – | 8.6 ± 0.5 | 93.2 | – | – | – | C/C(=N\NC(N)=S)c1ccccc1[N+](=O)[O-] [TSC 10, (E)-2’-Nitroacetophenone thiosemicarbazone]
14 | 0.65 | 30.6 | – | – | 88.9 | reversible | mixed-type | – | 0.6 ± 0.1 | 150 | – | – | – | C/C(=N\NC(N)=S)c1cccc(N)c1 [TSC 5, (E)-3’-Aminoacetophenone thiosemicarbazone]
15 | – | 12.4 | – | – | – | reversible | mixed | – | – | 137 | – | – | – | C/C(=N\NC(N)=S)c1ccc([N+](=O)[O-])cc1 [TSC 12, (E)-4’-Nitroacetophenone thiosemicarbazone]
16 | – | – | – | – | 139 | reversible | competitively | – | 0.2 ± 0.06 | 155 | – | – | – | C/C(=N\NC(N)=S)c1ccc(N)cc1 [TSC 6, (E)-4’-Aminoacetophenone thiosemicarbazone]
